The values that follow come from patent US12492177B2, “RAR-α compounds for inflammatory disease and male contraception” (Orphagen Pharmaceuticals, Inc., priority 2019, dated 2025).

Where only a bound is given, the exact number is not on record here.

Type in all cases: cell-based
Test [1] deals with T1, RARα (Homo sapiens, UniProt P10276).
T1 sequence (P10276 1-462): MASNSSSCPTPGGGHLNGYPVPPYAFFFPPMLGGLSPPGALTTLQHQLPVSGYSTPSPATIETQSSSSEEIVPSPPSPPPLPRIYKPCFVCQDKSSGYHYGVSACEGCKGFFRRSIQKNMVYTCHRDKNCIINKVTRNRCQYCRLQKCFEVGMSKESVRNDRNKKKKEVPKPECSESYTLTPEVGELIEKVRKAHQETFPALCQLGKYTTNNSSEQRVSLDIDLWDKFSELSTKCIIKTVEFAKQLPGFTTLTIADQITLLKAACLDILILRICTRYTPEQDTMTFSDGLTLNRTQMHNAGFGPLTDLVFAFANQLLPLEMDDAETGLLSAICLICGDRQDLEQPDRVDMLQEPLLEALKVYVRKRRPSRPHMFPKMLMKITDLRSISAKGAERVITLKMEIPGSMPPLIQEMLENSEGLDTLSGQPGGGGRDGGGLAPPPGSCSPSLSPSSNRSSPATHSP
Nature of the test: RARα transcriptional assay, agonist activity. As to conditions: agonist mode. The method, then:
(§1) Transcriptional assays for RARα, RARβ and RARγ, which measure the antagonist or agonist like activity of the compounds are described in WO 2017/201200 A1 (Thacher, Crowe, Tao and Raheja, Therapeutic compositions containing RAR-alpha antagonists) published on Nov. 23, 2017, which is also incorporated herein by reference. The results obtained in these assays are expressed as EC50 values when measuring agonist activity and IC50 values when measuring antagonist activity in the presence of 0.5 nM TTNPB, a retinoid agonist.

Test [2] addresses T2, RARβ (Homo sapiens, UniProt P10826).
T2 sequence (P10826 1-455): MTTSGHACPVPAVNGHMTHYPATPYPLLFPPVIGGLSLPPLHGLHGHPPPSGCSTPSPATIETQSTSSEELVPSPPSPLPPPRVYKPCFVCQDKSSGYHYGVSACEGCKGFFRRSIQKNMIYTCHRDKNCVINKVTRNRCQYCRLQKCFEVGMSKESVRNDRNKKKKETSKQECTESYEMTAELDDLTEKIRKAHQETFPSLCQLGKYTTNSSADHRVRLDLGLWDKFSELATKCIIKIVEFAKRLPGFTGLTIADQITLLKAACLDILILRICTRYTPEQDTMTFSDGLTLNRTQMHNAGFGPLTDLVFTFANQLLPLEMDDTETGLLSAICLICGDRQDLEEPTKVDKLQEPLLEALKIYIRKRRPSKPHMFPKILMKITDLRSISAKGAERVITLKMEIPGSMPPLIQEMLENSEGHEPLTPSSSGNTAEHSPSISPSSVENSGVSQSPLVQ
Nature of the test: RARβ transcriptional assay, agonist activity. As to conditions: agonist mode. The method, then:
as §1

The target of test [3] is T3, RARγ (Homo sapiens, UniProt P13631).
T3 sequence (P13631 1-454): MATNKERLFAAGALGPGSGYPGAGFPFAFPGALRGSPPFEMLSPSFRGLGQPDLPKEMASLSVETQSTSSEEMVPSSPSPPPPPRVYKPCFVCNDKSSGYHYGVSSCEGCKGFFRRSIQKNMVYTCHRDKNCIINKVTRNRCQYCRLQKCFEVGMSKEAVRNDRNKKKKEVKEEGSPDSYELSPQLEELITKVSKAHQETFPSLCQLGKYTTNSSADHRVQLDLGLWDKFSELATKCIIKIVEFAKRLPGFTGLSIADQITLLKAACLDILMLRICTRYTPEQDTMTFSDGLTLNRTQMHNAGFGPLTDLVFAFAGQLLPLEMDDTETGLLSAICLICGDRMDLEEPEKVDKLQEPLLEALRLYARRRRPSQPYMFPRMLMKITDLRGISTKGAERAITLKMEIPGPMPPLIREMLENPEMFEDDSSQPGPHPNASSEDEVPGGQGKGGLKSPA
The experiment in a line: RARγ transcriptional assay, agonist activity. As to conditions: agonist mode. The protocol: as §1

Test [4] addresses T1, RARα. Nature of the test: RARα transcriptional assay, antagonist activity. As to conditions: in the presence of 0.5 nM TTNPB. The protocol: as §1
In test [5] the target is T2, RARβ. Nature of the test: RARβ transcriptional assay, antagonist activity. As to conditions: in the presence of 0.5 nM TTNPB. The method, then: as §1
Test [6] addresses T3, RARγ. Nature of the test: RARγ transcriptional assay, antagonist activity. As to conditions: in the presence of 0.5 nM TTNPB. The protocol: as §1

One may read the EC50 as the concentration at which the effect is half-maximal. Usually IC50 stands for the midpoint of a concentration-inhibition curve. As to `CC#CC1=CC(C)(C)Oc2c(Br)cc(C(=O)Nc3ccc(C(=O)O)c(F)c3)cc21` [Compound 37], the EC50 at RARα [1] is 0.011 to 0.1 µM; on RARβ [2], 0.101 to 1 µM; on RARγ [3], more than 1 µM. Further, the IC50 is 0.001 to 0.01 µM at RARα [4], more than 1 µM on RARβ [5] and more than 1 µM on RARγ [6].
`CN1CCC(C2=CC(C)(C)Oc3c(Br)cc(C(=O)Nc4ccc(C(=O)O)c(F)c4)cc32)CC1` [Compound 32]: the EC50 at RARα [1], on RARβ [2] and on RARγ [3] was more than 1 µM each time. Besides, the IC50 at RARα [4], at RARβ [5] and on RARγ [6] was more than 1 µM throughout.
For `CC1CCC(C2=CC(C)(C)Oc3c(Br)cc(C(=O)Nc4ccc(C(=O)O)c(F)c4)cc32)CC1` (stereo not drawn) [Compound 35], the concentration giving a half-maximal response (EC50) on RARα [1], at RARβ [2] and at RARγ [3] was more than 1 µM throughout. Also, the “Antagonist Activity RARα Efficacy” value on RARα [4] was “† (†, RARα antagonist efficacy >85%)”. For the same compound, the IC50 was less than 0.001 µM at RARα [4], 0.011 to 0.1 µM on RARβ [5] and more than 1 µM at RARγ [6].
With `CC1(C)C=C([C@H]2CC[C@@H](C)CC2)c2cc(C(=O)Nc3ccc(C(=O)O)c(F)c3)cc(Br)c2O1` [Compound 36], the EC50 on RARα [1], on RARβ [2] and at RARγ [3] was more than 1 µM each time. In addition, the “Antagonist Activity RARα Efficacy” value on RARα [4] is reported as “† (†, RARα antagonist efficacy >85%)”. The values for the 50% inhibitory concentration (IC50) at RARα [4], on RARβ [5] and at RARγ [6] were less than 0.001 µM, more than 1 µM and more than 1 µM, respectively.
Consider `CC1(C)CCC(C2=CC(C)(C)Oc3c(Br)cc(C(=O)Nc4ccc(C(=O)O)c(F)c4)cc32)CC1` [Compound 38], for which the concentration for a half-maximal effect (EC50) at RARα [1], on RARβ [2] and at RARγ [3] was more than 1 µM in each case. Moreover, the “Antagonist Activity RARα Efficacy” value on RARα [4] was “† (†, RARα antagonist efficacy >85%)”. In addition, the 50% inhibitory concentration (IC50) at RARα [4] was less than 0.001 µM; on RARβ [5], 0.011 to 0.1 µM; on RARγ [6], 0.011 to 0.1 µM.
As to `CC[C@H]1CC[C@@H](C2=CC(C)(C)Oc3c(Br)cc(C(=O)Nc4ccc(C(=O)O)c(F)c4)cc32)CC1` [Compound 40], the EC50 at RARα [1], on RARβ [2] and at RARγ [3] was more than 1 µM each time. The “Antagonist Activity RARα Efficacy” value at RARα [4] is reported as “† (†, RARα antagonist efficacy >85%)”. Further, the results for the IC50 on RARα [4], on RARβ [5] and at RARγ [6] were less than 0.001 µM, more than 1 µM and more than 1 µM, respectively.
With `CC(C)C1=CC(C)(C)Oc2c(Br)cc(C(=O)Nc3ccc(C(=O)O)c(F)c3)cc21` [Compound 33], the figures for the concentration giving a half-maximal response (EC50) on RARα [1], on RARβ [2] and at RARγ [3] were less than 0.001 µM, 0.011 to 0.1 µM and 0.101 to 1 µM, respectively. The IC50 on RARα [4], on RARβ [5] and on RARγ [6] was more than 1 µM each time.
For the compound `CC1(C)C=C(C2CCOCC2)c2cc(C(=O)Nc3ccc(C(=O)O)c(F)c3)cc(Br)c2O1` [Compound 34], the EC50 on RARα [1], at RARβ [2] and at RARγ [3] was 0.101 to 1 µM each time. The “Antagonist Activity RARα Efficacy” value at RARα [4] is recorded as “† (†, RARα antagonist efficacy >85%)”. For the same compound, the figures for the IC50 on RARα [4], on RARβ [5] and on RARγ [6] were 0.011 to 0.1 µM, more than 1 µM and more than 1 µM, respectively.
Turning to `CC[C@H]1CC[C@H](C2=CC(C)(C)Oc3c(Br)cc(C(=O)Nc4ccc(C(=O)O)c(F)c4)cc32)CC1` [Compound 39], the EC50 on RARα [1], on RARβ [2] and at RARγ [3] was more than 1 µM each time. Further, at RARα [4], the “Antagonist Activity RARα Efficacy” value was “† (†, RARα antagonist efficacy >85%)”. Besides, the IC50 on RARα [4] is less than 0.001 µM; on RARβ [5], 0.101 to 1 µM; on RARγ [6], 0.101 to 1 µM.
